Measurements: patent US20070160657A1, “Targeting and intestinal-absorption controlled liposome having sugar chain and therapeutic drug for cancer and diagnostic drug containing the liposome” (National Institute of Advanced Industrial Science, priority 2003, published 2007)

Key:
[1] = blood; tail vein; amount administered 1.4 mg/kg; mice with EAT cancer
Protocol: Ehrlich ascites tumor (EAT) cells (about 2×10^7 cells) were implanted subcutaneously into the right femoral region in male ddY mice (7 weeks of age), and the 50 mice were used in this test after the tumor tissues grew to 50 to 100 cubic mm (after 6 to 8 days).
These mice with cancer were separated into two groups, 25 mice per each group, and the mice in each group were injected with a liposome solution encapsulating having glycolipid type sugar chain and doxorubicin or free doxorubicin solution at a dose of 0.2 ml in tail vein after the tumor implant. Then, at various time intervals, the doxorubicin concentration was measured by fluorescent method (470 nm) in blood and tumor tissue of 5 mice from each group.

[2] = tested on: KG-1a cells; assay: Cytotoxicity of doxorubicin HCl incorporated in liposome, WST-8, human leukemia cells; format: cell-based; settings: read-out: 50% growth inhibition concentration (IC50); KG-1a human leukemia cells, 72 hours
Protocol: (§1) KG-1a cells established from an acute myeloid leukemia patient were used as human leukemia cells. KG-1a cells were cultured in RPMI 1640 medium containing 10% fetal bovine serum (hereinafter FBS). MRC5 cells established from normal fibroblastic cells were used as normal human cells, and cultured in MEM medium containing 10% FBS. Cell suspensions were prepared from these cells at the concentration of 10^5 cells/ml and distributed to 96 well plates at 10^4 cells/well. After 24 hours, free doxorubicin HCl, which was not incorporated in liposome (hereinafter free Dox), doxorubicin HCl incorporated in liposome on which sugar was not bonded (hereinafter L-Dox) and doxorubicin HCl incorporated in liposome on which sialyl Lewis X tetrasaccharide was bonded (hereinafter L-Dox-SLX) were added to each well at appropriate concentrations. […] After removing the media containing the anticancer drug, replacing with 100 μl of RPMI 1640 or MEM containing 10% WST-8 and 10% FBS and incubating for 3 hours, the quantitation of cells were carried out by measuring absorbance at 485 nm (using the absorbance at 550 nm as a reference). Kiling activity (%)=100−(absorbance of the well of interest at 485 nm−absorbance of the same well at 550 nm)/(absorbance of the untreated well at 485 nm−absorbance of the untreated well at 550 nm)×100. […]

[3] = tested on: MRC5 cells; assay: Cytotoxicity of doxorubicin HCl incorporated in liposome, WST-8, normal human cells; format: cell-based; settings: read-out: 50% growth inhibition concentration (IC50), 72 hours
Protocol: as §1

[4] = tested on: Collagen type II induced arthritis (CIA) model; assay: Determination of suitable dose of predonisolone phosphate in RA (CIA) mice, intravenous; format: in vivo, DBA/1J mouse
[5] = tested on: Collagen type II induced arthritis (CIA) model; assay: Treatment of RA (CIA) mice by intravenous administration; format: in vivo, DBA/1J mouse
[6] = tested on: Collagen type II induced arthritis (CIA) model; assay: Treatment of RA (CIA) mice by oral administration; format: in vivo, DBA/1J mouse; settings: oral 3 times a week, Day 28 to 39; free Pred 100 μg (up to Day 32), liposomes 10 μg per administration

COc1cccc2c1C(=O)c1c(O)c3c(c(O)c1C2=O)C[C@@](O)(C(=O)CO)C[C@@H]3O[C@H]1C[C@H](N)[C@H](O)[C@H](C)O1.Cl [free Dox, doxorubicin HCl]
AUC0→∞ [1]: 130 ± 10 µg·h/mL | IC50 [2]: 0.18 µM | IC50 [3]: 8.4 µM

C[C@]12C=CC(=O)C=C1CC[C@@H]1[C@@H]2[C@@H](O)C[C@@]2(C)[C@H]1CC[C@]2(O)C(=O)COP(=O)(O)O [free Pred, predonisolone phosphate]
Inflammatory Activity (IA) versus Control ([4]; iv 250 μg per injection, 500 μg per week): No significant difference | Inflammatory Activity (IA) versus Control ([4]; iv 500 μg per injection, 1000 μg per week): no increase in IA was observed and the progression of inflammation was suppressed | Dose required to suppress the progression of inflammation ([4]; iv, more than 500 up to 1000 μg/week): > 500 μg/week | Inflammatory Activity (IA) ([5]; Day 37 and afterward, iv 100 μg per injection, twice a week): about 50% | Inflammatory Activity (IA), comparison between groups ([5]; iv twice a week, free Pred 100 μg, liposomes 10 μg per injection): no clear difference from the Control group in IA | Inflammatory Activity (IA), comparison between groups [6]: no significant difference in IA
